Experimental findings from patent publication US20200392223A1, “IL-17A ACTIVITY INHIBITOR AND USE THEREOF” (TOKAI UNIVERSITY EDUCATIONAL SYSTEM, priority 2018, published 2020) are described below.

In one assay the test system is p38. The assay is described as follows: Phosphorylation of MAPK factors (western blotting) in rat NP cells treated with IL-17A. The assay is classed as cell-based. The note with it: 50 μg/ml + IL-17A 50 ng/ml, 1% oxygen. The procedure:
In rat nucleus pulposus cells subjected to treatment for 24 hours in 50 ng/mL of IL-17A in which the most remarkable increases of IL-6 and COX-2 were observed, an expression level of a protein of each of IL-6 and COX-2, and β actin used as a control was determined by western blotting according to the following procedure. The nucleus pulposus cells were placed on ice and then washed with ice-cold PBS. In order to prepare total cell proteins, the cells were lysed with a lysis buffer containing 10 mM Tris-HCl (pH 7.6), 50 mM NaCl, 5 mM EDTA, 1% Nonidet P-40, a complete protease inhibitor cocktail (Roche AG, USA), 1 mM NaF, and 1 mM Na3VO4. The proteins were fractionated by SDS-PAGE and transferred onto Immobilon-P polyvinylidene difluoride membrane (Millipore Corporation, USA). […] Western blotting data were quantified by densitometric scanning of a film using Macintosh computer software “CS Analyzer” (ATTO Corporation, Japan). […]
It is reported that IL-17A is likely to be involved in the expression of COX-2 through a MAPK pathway. Involvement of IL-17A in MAPK factors (p38, JNK, and ERK) with respect to the expression of each of COX-2 and IL-6, and influence of the compound (1) of the present invention on these MAPK factors were evaluated by the following method. […]

Assay [1] relates to rat nucleus pulposus (NP) cell. The assay is described as follows: mRNA expression (real time RT-PCR) in rat NP cells treated with IL-17A under 1% oxygen. The following applies: 24 hours. It counts as cell-based. On the procedure:
Nucleus pulposus cells were separated from a Sprague Dawley rat aged 11 weeks according to a method in Risbud et al (Journal of cellular biochemistry 98, 152-159, 2006; doi:10.1002/jcb.20765). In short, lumbar and coccygeal intervertebral discs of a deeply anesthetized rat were dissected under an aseptic condition, gel-like nucleus pulposus was separated from intervertebral disc annulus fibrosus (AF), the nucleus pulposus was minced and pipetted, and then the nucleus pulposus was cultured in a Dulbecco's Modified Eagle Medium (DMEM) in which 20% FBS and antibiotics were added at 20% O2, 5% CO2, and 37° C. for about 1 to 2 weeks, and then was cultured in DMEM in which 10% FBS and antibiotics were added for about 1 to 2 weeks.
The cultured rat nucleus pulposus cells were treated with 20 or 50 ng/mL of recombinant mouse IL-17A (Pepro Tech Inc., USA, #210-17) for 24 hours, expression levels of mRNAs of IL-6, COX-2, mPGES1, MMP-3, and MMP-13 were determined by real time RT-PCR according to the following procedure. Total RNA was extracted from the nucleus pulposus cells using an RNAeasy mini-column (Qiagen, Germany). Before elution from the column, RNA was treated with RNase-Free DNase I (Qiagen, Germany). The purified DNA-free RNA was transformed into cDNA using a High Capacity cDNA Reverse Transcription Kit (Applied Biosystems, USA). Template cDNA and a primer specific to each gene were added to Power SYBR Green master mix (Applied Biosystems) and an expression level of mRNA of each gene was determined using Step One Plus Real-time PCR System (Applied Biosystems). The expression level was normalized to β actin. It was verified by melting curve analysis that RT-PCR was specific and a primer dimer was not formed. […]
In (B) and (C), among the compounds of the present invention, only the compound (3) which is considered from the results of (A) described below to have the highest effect on IL-6 and COX-2 was used.
A p38 phosphorylation inhibitor “SB203580” with a concentration of 10 μM, a JNK phosphorylation inhibitor “SP600125” with a concentration of 10 μM, or an ERK phosphorylation inhibitor “PD98059” with a concentration of 10 μM was administered to rat NP cells together with recombinant mouse IL-17A with a concentration of 50 ng/ml, or alternatively, these inhibitors were not administered, and the cells were cultured under a 1% oxygen condition for 24 hours, and an expression level of mRNA of each of COX-2 and IL-6 was determined by real time RT-PCR according to the same procedure as that of [Reference Example 2]. […]

In assay [2] the test system is mouse psoriasis skin model. Nature of the assay: Mouse psoriasis skin model (imiquimod cream). The assay is classed as in vivo. The procedure: About 1×1.5 cm of back of 10-week-old male BJ6J mouse was shaved, and imiquimod (IMQ, a drug causing psoriasis-like dermatitis in a mouse) cream was applied every day from day 1 to day 4. From the 5th day (day 5) after the first IMQ cream application, 6 to 8 hours after the application of the IMQ cream, a DMSO solution containing 1 mg of the compound (3) (database registration name: STK630921) was applied (STK group=compound (3) treated group). The same IMQ cream and the solution of the compound (3) were applied every day from the 6th day (day 6) to the 9th day (day 9). […]
On the 10th day (day 10), skin of the mice in each of the STK group, the Sham group, the IMQ group, and the normal group was collected, and one sample obtained by hematoxylin eosin (HE) staining and one sample obtained by immunofluorescence staining using an anti-CXCL1 antibody were prepared per mouse. In the HE stained samples, for each sample, a thickness of an epidermis layer was measured at two or more locations with the same magnification field of view, and an average value was statistically analyzed (significant difference: p<0.05, n=3).

For assay [3], the system named is rat intervertebral disc degeneration model. Nature of the assay: Rat intervertebral disc degeneration model. It counts as in vivo. The note with it: 1 mg in 10 μL DMSO injected into degenerated disc on day 14, evaluated day 28. On the procedure: A 23G needle was inserted into a caudal intervertebral disc of a 11-weeks-old male SD rat (weight: 300 to 350 g) by about 5 mm, rotated at 360°, and left for 30 seconds to cause intervertebral disc degeneration (day 0). 14 days (day 14) after being subjected to the intervertebral disc degeneration, 10 μL of a DMSO solution containing 1 mg of the compound (3) (database registration number: STK630921) was injected to the degenerated intervertebral disc (STK group=compound (3) treated group). […]
28 days (day 28) after being subjected to the intervertebral disc degeneration, the caudal vertebrae of the rats in the STK group, the Sham group, the degeneration group, and the normal group were collected, fixed in 4% PFA, and decalcified, thereby preparing sample sections. […] In each sample subjected to the immunostaining, the number of IL-6 positive cells in spots of the same area arbitrarily set at 3 or 4 locations in the intervertebral disc tissue was counted with the same magnification field of view, and an expression rate of the IL-6 positive cells with respect to a total number of cells in the same spot was calculated.

Where [4] appears, read: compound 50 μg/ml + IL-17A 50 ng/ml, vs IL-17A only.
Setting [5] is: inhibitor 10 μM + IL-17A 50 ng/ml.

With `C[C@H](NC(=O)Cc1nnc(O)c2ccccc12)C(=O)NCC1CCC(C(=O)O)CC1` (some centres unmarked) [(1)], the “phosphorylation of p38” value with p38 (15 minutes) is on record as “reduced”; in the assay with p38 (30 minutes, vs IL-17A single administration group), “significant reduction”. Besides, in assay [1] (setting [4]), the “expression level of mRNA of COX-2” value is recorded as “excellent in the action”.
`CC(NC(=O)Cc1nnc(O)c2ccccc12)C(=O)NCC1CCC(C(=O)O)CC1` (centres unmarked) [(3)]: in assay [2] (DMSO solution containing 1 mg applied day 5 to day 9, skin collected day 10, HE staining), the “thickness of the epidermis layer” value is given as “significantly reduced”. The “expression of CXCL1” value in assay [2] (DMSO solution containing 1 mg applied day 5 to day 9, skin collected day 10, immunofluorescence area) is listed as “significantly reduced”. In addition, in assay [1] (setting [4]), the “expression level of mRNA of COX-2” value is “remarkably reduced”, the “expression level of mRNA of IL-6” value is reported as “remarkably reduced”, the “expression level of mRNA of MMP-3” value is on record as “significantly reduced” and the “expression level of mRNA of MMP-13” value is recorded as “significantly reduced”. In assay [1] (setting [4]), the “expression level of mRNA of mPGES1” value is given as “significantly reduced”. In assay [3], the “expression rate of the IL-6 positive cells” value is on record as “significantly reduced”.
Regarding `COc1ccc(C[C@@]2(C)NC(=O)N(CC(=O)Nc3ccc(N4CCCC4=O)cc3)C2=O)cc1OC` [(5)], in assay [1] (setting [4]), the “expression level of mRNA of COX-2” value was “significantly reduced”, the “expression level of mRNA of IL-6” value was “significantly reduced”, the “expression level of mRNA of MMP-3” value is recorded as “significantly reduced” and the “expression level of mRNA of MMP-13” value is “significantly reduced”. Also, the “expression level of mRNA of mPGES1” value in assay [1] (setting [4]) is “significantly reduced”.
As for `CC(C)NC(=O)CCCCn1c(=O)c2ccccc2n(CC(=O)Nc2ccc3c(c2)OCO3)c1=O` [(9)], the “expression level of mRNA of IL-6” value in assay [1] (setting [4]) is given as “significantly reduced”.
As to `C=C(C)COc1ccc2c(C)c(CC(=O)N(C)C[C@H](O)[C@H](O)[C@H](O)[C@H](O)CO)c(=O)oc2c1C` [(11)], in assay [1] (setting [4]), the “expression level of mRNA of COX-2” value is listed as “significantly reduced”, the “expression level of mRNA of IL-6” value is “significantly reduced”, the “expression level of mRNA of MMP-3” value is given as “significantly reduced” and the “expression level of mRNA of MMP-13” value was “significantly reduced”. In addition, in assay [1] (setting [4]), the “expression level of mRNA of mPGES1” value is “significantly reduced”.
On to `COc1cccc(-c2cc(=O)c3ccccc3o2)c1N` [PD, PD98059, reference compound], for which, in assay [1] (setting [5]), the “expression level of mRNA of COX-2” value is “significantly suppressed” and the “expression level of mRNA of IL-6” value was “significantly suppressed”.
Consider `C[S+]([O-])c1ccc(-c2nc(-c3ccncc3)c(-c3ccc(F)cc3)[nH]2)cc1` (centres unmarked) [SB, SB203580, reference compound], for which, in assay [1] (setting [5]), the “expression level of mRNA of COX-2” value is “significantly suppressed” and the “expression level of mRNA of IL-6” value is “significantly suppressed”.
